Target: T1, ABL1 H396P (Homo sapiens, UniProt P00519, H396P)
T1 construct: purchased Thermo Fisher Scientific (Life Technologies) SelectScreen
Assay: SelectScreen LanthaScreen
Format: binding
Details: read-out: % displacement
Outline: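 SelectScreen broad panel; activity (Z'LYTE, Adapta) plus binding formats. ATP: Km app for CSF1R Z'LYTE; 10 for CAMK1 Adapta. Readout = % per kinase.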

CN(C(=O)CN1CCOCC1)c1ccc2sc3c(-c4cccc5c(=O)cc(N6CC7CCC(C6)O7)oc45)cccc3c2c1 [NU5455]
inhibition at 1 µM: 0.6%

— PMC6934184, “Selective DNA-PKcs inhibition extends the therapeutic index of localized radiotherapy and chemotherapy” (The Journal of Clinical Investigation, 2019)
